Holding throughout (assay): Bliss interaction score (quartile over a dose matrix) (fitness difference); higher = more antagonism (negative = synergy)
In test [1] the test system is B. subtilis 168. The gist of the method: (§1)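 Fitness here means normalised growth, inferred for single drugs from the combination data. Growth was OD595 at entry into stationary phase, divided by the plate's robust no-drug mean and capped at 1. The Bliss score is observed minus expected fitness, with the expectation being the product, and its quartiles span technical, biological and donor/recipient replicates.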

In test [2] the test system is S. aureus Newman. The gist of the method:
as §1

The test system of test [3] is S. aureus DSM 20231. Summed up:
as §1

In test [4] the test system is S. pneumoniae D39V. The gist of the method: as §1
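Further: first quartile when negative (synergy) and third quartile when positive (antagonism).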

In the case of `CC[C@H]1OC(=O)[C@H](C)[C@@H](O[C@H]2C[C@@](C)(OC)[C@@H](O)[C@H](C)O2)[C@H](C)[C@@H](O[C@@H]2O[C@H](C)C[C@H](N(C)C)[C@H]2O)[C@](C)(O)C[C@@H](C)C(=O)[C@H](C)[C@@H](O)[C@]1(C)O` [Erythromycin] + Cc1ncc([N+](=O)[O-])n1CCO [Metronidazole], the Bliss interaction score in test [1] was -0.0335; in test [2], -0.0396; in test [3], -0.0288; in test [4], 0.0719.
For `CC[C@H]1OC(=O)[C@H](C)[C@@H](O[C@H]2C[C@@](C)(OC)[C@@H](O)[C@H](C)O2)[C@H](C)[C@@H](O[C@@H]2O[C@H](C)C[C@H](N(C)C)[C@H]2O)[C@](C)(O)C[C@@H](C)C(=O)[C@H](C)[C@@H](O)[C@]1(C)O` [Erythromycin] + Cc1onc(-c2ccccc2)c1C(=O)N[C@@H]1C(=O)N2[C@@H]1SC(C)(C)[C@@H]2C(=O)O [Oxacillin] the same measures were -0.0427, 0.0255, 0.0345 and 0.0509.
For `CC[C@H]1OC(=O)[C@H](C)[C@@H](O[C@H]2C[C@@](C)(OC)[C@@H](O)[C@H](C)O2)[C@H](C)[C@@H](O[C@@H]2O[C@H](C)C[C@H](N(C)C)[C@H]2O)[C@](C)(O)C[C@@H](C)C(=O)[C@H](C)[C@@H](O)[C@]1(C)O` [Erythromycin] + Clc1ccc(COC(Cn2ccnc2)c2ccc(Cl)cc2Cl)c(Cl)c1 [Miconazole] the same measures were -0.0519, 0.0457, 0.0299 and 0.114.
For `CC[C@H]1OC(=O)[C@H](C)[C@@H](O[C@H]2C[C@@](C)(OC)[C@@H](O)[C@H](C)O2)[C@H](C)[C@@H](O[C@@H]2O[C@H](C)C[C@H](N(C)C)[C@H]2O)[C@](C)(O)C[C@@H](C)C(=O)[C@H](C)[C@@H](O)[C@]1(C)O` [Erythromycin] + Cn1nnc(-c2ccc(-c3ccc(N4C[C@H](CO)OC4=O)cc3F)cn2)n1 [Tedizolid], the Bliss interaction score in test [1] is -0.0574; in test [2], -0.07; in test [3], -0.0541; in test [4], 0.0787.
Turning to `CC[C@H]1OC(=O)[C@H](C)[C@@H](O[C@H]2C[C@@](C)(OC)[C@@H](O)[C@H](C)O2)[C@H](C)[C@@H](O[C@@H]2O[C@H](C)C[C@H](N(C)C)[C@H]2O)[C@](C)(O)C[C@@H](C)C(=O)[C@H](C)[C@@H](O)[C@]1(C)O` [Erythromycin] + O=C1CN(/N=C/c2ccc([N+](=O)[O-])o2)C(=O)N1 [Nitrofurantoin], the Bliss interaction score is -0.0393 in test [1], -0.0513 in test [2], -0.0518 in test [3] and -0.197 in test [4].
Regarding `CC[C@H]1OC(=O)[C@H](C)[C@@H](O[C@H]2C[C@@](C)(OC)[C@@H](O)[C@H](C)O2)[C@H](C)[C@@H](O[C@@H]2O[C@H](C)C[C@H](N(C)C)[C@H]2O)[C@](C)(O)C[C@@H](C)C(=O)[C@H](C)[C@@H](O)[C@]1(C)O` [Erythromycin] + Oc1cc(Cl)ccc1Oc1ccc(Cl)cc1Cl [Triclosan], the Bliss interaction score was -0.0438 in test [1], 0.0312 in test [2], -0.0265 in test [3] and -0.0874 in test [4].
For `CC(=O)NC[C@H]1CN(c2ccc(N3CCOCC3)c(F)c2)C(=O)O1` [Linezolid] + CC1(C)S[C@@H]2[C@H](NC(=O)Cc3ccccc3)C(=O)N2[C@H]1C(=O)O [PenicillinG] the same measures were -0.0653, -0.0481, 0.0632 and 0.0505.
On to `CC(=O)NC[C@H]1CN(c2ccc(N3CCOCC3)c(F)c2)C(=O)O1` [Linezolid] + CC[C@H]1OC(=O)[C@H](C)C(=O)[C@H](C)[C@@H](O[C@@H]2O[C@H](C)C[C@H](N(C)C)[C@H]2O)[C@](C)(OC)C[C@@H](C)C(=O)[C@H](C)[C@H]2N(CCCCn3cnc(-c4cccnc4)c3)C(=O)O[C@]12C [Telithromycin], for which the Bliss interaction score in test [1] is -0.143; in test [2], -0.074; in test [3] it was -0.133; in test [4], -0.0921.
For `CC(=O)NC[C@H]1CN(c2ccc(N3CCOCC3)c(F)c2)C(=O)O1` [Linezolid] + CN(C)C(=O)C(CCN1CCC(O)(c2ccc(Cl)cc2)CC1)(c1ccccc1)c1ccccc1 [Loperamide] the same measures were 0.0436, -0.0501, 0.116 and 0.176.
For `CC(=O)NC[C@H]1CN(c2ccc(N3CCOCC3)c(F)c2)C(=O)O1` [Linezolid] + CN[C@H](CC(C)C)C(=O)N[C@H]1C(=O)N[C@@H](CC(N)=O)C(=O)N[C@H]2C(=O)N[C@H]3C(=O)N[C@H](C(=O)N[C@H](C(=O)O)c4cc(O)cc(O)c4-c4cc3ccc4O)[C@H](O[C@H]3C[C@](C)(N)[C@@H](O)[C@H](C)O3)c3ccc(c(Cl)c3)Oc3cc2cc(c3O[C@@H]2O[C@H](CO)[C@@H](O)[C@H](O)[C@H]2O[C@H]2C[C@](C)(NCc3ccc(-c4ccc(Cl)cc4)cc3)[C@@H](O)[C@H](C)O2)Oc2ccc(cc2Cl)[C@H]1O [Oritavancin] the same measures were 0.0399, -0.0463, -0.0323 and 0.0845.
For `CC(=O)NC[C@H]1CN(c2ccc(N3CCOCC3)c(F)c2)C(=O)O1` [Linezolid] + CO[C@@]12[C@H](COC(N)=O)C3=C(C(=O)C(C)=C(N)C3=O)N1C[C@@H]1N[C@@H]12 [MitomycinC], the Bliss interaction score in test [1] was 0.0314; in test [2] it was 0.0823; in test [3], -0.068; in test [4], -0.0668.
For `CC(=O)NC[C@H]1CN(c2ccc(N3CCOCC3)c(F)c2)C(=O)O1` [Linezolid] + Oc1cc(Cl)ccc1Oc1ccc(Cl)cc1Cl [Triclosan] the same measures were 0.0335, 0.026, -0.0777 and -0.0928.
Regarding `CO[C@@]12[C@H](COC(N)=O)C3=C(C(=O)C(C)=C(N)C3=O)N1C[C@@H]1N[C@@H]12` [MitomycinC] + C/C(=C\C(=O)OCCCCCCCCC(=O)O)C[C@@H]1OC[C@H](C[C@@H]2O[C@H]2[C@@H](C)[C@H](C)O)[C@@H](O)[C@H]1O [Pseudomonic acid], the Bliss interaction score in test [1] was -0.0185; in test [2] it was -0.0169; in test [3], -0.011; in test [4] it was -0.0895.
For `CO[C@@]12[C@H](COC(N)=O)C3=C(C(=O)C(C)=C(N)C3=O)N1C[C@@H]1N[C@@H]12` [MitomycinC] + CC1(C)S[C@@H]2[C@H](NC(=O)Cc3ccccc3)C(=O)N2[C@H]1C(=O)O [PenicillinG] the same measures were -0.0602, -0.0455, -0.0709 and 0.103.
For `CO[C@@]12[C@H](COC(N)=O)C3=C(C(=O)C(C)=C(N)C3=O)N1C[C@@H]1N[C@@H]12` [MitomycinC] + CC1=C\[C@@H](O)CC(=O)Cc2nc(co2)C(=O)N2CCC=C2C(=O)O[C@H](C(C)C)[C@H](C)/C=C/C(=O)NC\C=C\1 [Virginiamycin M1] the same measures were 0.0757, -0.059, 0.0401 and 0.0805.
Turning to `CO[C@@]12[C@H](COC(N)=O)C3=C(C(=O)C(C)=C(N)C3=O)N1C[C@@H]1N[C@@H]12` [MitomycinC] + CCC(C)C1C(=O)NC(=C)C(=O)NC(C(=O)NC(CSCC(C(=O)N1)NC(=O)/C(=C/C)/NC(=O)C(C(C)CC)N)C(=O)NC2C(SCC(NC(=O)CNC(=O)C3CCCN3C2=O)C(=O)NC(CCCCN)C(=O)NC4C(SCC(NC(=O)CNC(=O)C(NC(=O)C(NC(=O)C(NC(=O)CNC4=O)C)CC(C)C)CCSC)C(=O)NC(CC(=O)N)C(=O)NC(CCSC)C(=O)NC(CCCCN)C(=O)NC5C(SCC6C(=O)NC(C(=O)NC(CSC(C(C(=O)N6)NC(=O)C(NC5=O)C)C)C(=O)NC(CO)C(=O)NC(C(C)CC)C(=O)NC(CC7=CN=CN7)C(=O)NC(C(C)C)C(=O)NC(=C)C(=O)NC(CCCCN)C(=O)O)CC8=CN=CN8)C)C)C)CC(C)C [Nisin], the Bliss interaction score was -0.0279 in test [1] (main component drawn), -0.0537 in test [2] (main component drawn), -0.242 in test [3] (main component drawn) and -0.0423 in test [4] (main component drawn).
Turning to `CO[C@@]12[C@H](COC(N)=O)C3=C(C(=O)C(C)=C(N)C3=O)N1C[C@@H]1N[C@@H]12` [MitomycinC] + CCCCCCCCCC(=O)N[C@@H]1[C@H]([C@@H]([C@H](O[C@H]1OC2=C3C=C4C=C2OC5=C(C=C(C=C5)[C@H]([C@H]6C(=O)N[C@@H](C7=C(C(=CC(=C7)O)OC8[C@H]([C@H]([C@@H]([C@H](O8)CO)O)O)O)C9=C(C=CC(=C9)[C@H](C(=O)N6)NC(=O)[C@@H]4NC(=O)[C@@H]1C2=CC(=CC(=C2)OC2=C(C=CC(=C2)[C@H](C(=O)N[C@H](CC2=CC(=C(O3)C=C2)Cl)C(=O)N1)N)O)O)O)C(=O)O)O[C@H]1[C@@H]([C@H]([C@@H]([C@H](O1)CO)O)O)NC(=O)C)Cl)CO)O)O [Teicoplanin], the Bliss interaction score was -0.0487 in test [1] (main component drawn), -0.228 in test [2] (main component drawn), -0.126 in test [3] (main component drawn) and -0.0795 in test [4] (main component drawn).
For the molecule `CO[C@@]12[C@H](COC(N)=O)C3=C(C(=O)C(C)=C(N)C3=O)N1C[C@@H]1N[C@@H]12` [MitomycinC] + CCN(CC)CCOC(=O)c1ccc(N)cc1 [Procaine], the Bliss interaction score in test [1] was 0.0575; in test [2], 0.0275; in test [3], 0.0322; in test [4], 0.0639.
For `CO[C@@]12[C@H](COC(N)=O)C3=C(C(=O)C(C)=C(N)C3=O)N1C[C@@H]1N[C@@H]12` [MitomycinC] + CC[C@H]1OC(=O)[C@H](C)C(=O)[C@H](C)[C@@H](O[C@@H]2O[C@H](C)C[C@H](N(C)C)[C@H]2O)[C@](C)(OC)C[C@@H](C)C(=O)[C@H](C)[C@H]2N(CCCCn3cnc(-c4cccnc4)c3)C(=O)O[C@]12C [Telithromycin] the same measures were 0.0694, -0.0269, -0.0567 and -0.102.
